# What was measured:
# [1] = tested on: Candida albicans KB-8; assay: Number of viable cells in the kidney of Candida-infected mice; type: in vivo, DDY strain male mice; settings: per os, total dose 20 mg/kg; for Medicated group, number of cells in kidney (cell/g): given immediately and 5 hours after infection, kidneys taken 24 hours after infection; for Medicated/ Non-medicated (logarithmic value): kidney cell count 24 hours after infection, non-medicated group 1.45x10^5 cell/g
# Procedure: Candida albicans KB-8 was cultured on a Sabouraud's agar plate admixed with blood in a concentration of 5 % (v/v) - at 30°C for 4 days, suspended in physiologically saline solution and diluted to approximately 10,000,000 cells/ml. DDY strain male mice were […] via the tail vein with 0.2 ml of this suspension.
# The animals were orally medicated with the test compound in the form of 0,5 % (w/v) methylcellulose supension at a total dose of 20 mg per kg of the body weight immediately and 5 hours after the infection.
# After 24 hours from the infection, the animals were sacrificed, and the kidneys were taken out. After the kidneys were homogenized in 4 fold sterilized physiologically saline solution, a certain amount of the suspension was scattered on a Sabouraud's agar plate and cultured at 37°C for 48 hours. Then, the number of colonies was counted, the number of cells per one gram of the kidney was calculated, and the difference between the calculated numbers in the medicated group and in the non- medicated group was expresed by a logarithmic value.
# [2] = tested on: Candida albicans, strain KB-8 (clinical isolate); assay: In vitro inhibition of pseudomycelium formation; type: cell-based; settings: effective dose to inhibit formation of pseudomycelium, light microscopy at 72 hours after inoculation, Eagle's MEM, 37°C, 5 % CO2, read-out: Minimum effective dose
# Procedure: Candida albicans, strain KB-8 (clinical isolate), was maintained on Sabouraud's agar slants at room temperature. Yeast cells were grown at 37°C on Sabouraud's agar and a loopful from a 24 hours' slant was inoculated in 4.5 ml of Sabouraud's broth and cultured at 37°C for 24 hours. A 0.5 ml aliquot of this culture was inoculated in 100 ml of a casein hydrolysate yeast-extract glucose medium (CYG medium). Cells were grown at 37°C aerobically in a reciprocating shaker for 48 hours. From this culture, a 0.2 ml aliquot was again inoculated in 100 ml CYG medium and grown for another 24 hours at 37°C while shaking.
# The pseudomycelium growth-promoting medium consisted of Eagle's minimal essential medium supplemented with non-essential amino acids and sodium bicarbonate (2 g/liter). Yeast cells were seeded at densities of 1.0 x 10^5/ml in sterile culture tubes (010 x 100 mm) containing 3 ml of medium. Cells were grown in a humidified atmosphere of 5 % C02 in air at 37°C.
# The effects of the test compound were evaluated . under the following conditions: the cultures were exposed to the test compound in doses ranging from […] to 10^-4 M; the solvent for the test compound was added as an aqueous solution. Pseudomycelium development was observed by light microscopy at 72 hours after inoculation.
SMILES,"Medicated group, number of cells in kidney (cell/g) [1]",Medicated/ Non-medicated (logarithmic value) [1],minimal effective concentration [2]
CCCCSCC(O)(Cn1ccnc1)c1ccc(Cl)cc1Cl (racemic) [A],1.86x10^3 cell/g,-1.89,0.1 µM
"CCCCSC[C@@](O)(Cn1ccnc1)c1ccc(Cl)cc1Cl [B, (S)-3-(n-butylthio)-2-(2,4-dichlorophenyl)-1-(imidazol-1-yl)-2-propanol]",1.82x10^4 cell/g,-0.90,1 µM
"CCCCSC[C@](O)(Cn1ccnc1)c1ccc(Cl)cc1Cl [I (n=3), (R)-3-(n-butylthio)-2-(2,4-dichlorophenyl)-1-(imidazol-1-yl)-2-propanol]",1.41x10^3 cell/g,-2.01,0.001 µM

# Reference: patent EP0098942A1, “Optically active imidazolylpropanol compounds, and their production and use” (SUMITOMO CHEMICAL COMPANY, LIMITED, priority 1982, dated 1984)
